# Measurements taken from ChEMBL document CHEMBL1909046, “DrugMatrix in vitro pharmacology data”.
# Key:
# [1] = molecular target: T1, Muscarinic acetylcholine receptor M2 (Homo sapiens, UniProt P08172); type: cell membranes, CHO-K1, Membrane; also: in other assays of this panel Not Active means under 50% inhibition at 10 µM
# T1 sequence (P08172 whole entry): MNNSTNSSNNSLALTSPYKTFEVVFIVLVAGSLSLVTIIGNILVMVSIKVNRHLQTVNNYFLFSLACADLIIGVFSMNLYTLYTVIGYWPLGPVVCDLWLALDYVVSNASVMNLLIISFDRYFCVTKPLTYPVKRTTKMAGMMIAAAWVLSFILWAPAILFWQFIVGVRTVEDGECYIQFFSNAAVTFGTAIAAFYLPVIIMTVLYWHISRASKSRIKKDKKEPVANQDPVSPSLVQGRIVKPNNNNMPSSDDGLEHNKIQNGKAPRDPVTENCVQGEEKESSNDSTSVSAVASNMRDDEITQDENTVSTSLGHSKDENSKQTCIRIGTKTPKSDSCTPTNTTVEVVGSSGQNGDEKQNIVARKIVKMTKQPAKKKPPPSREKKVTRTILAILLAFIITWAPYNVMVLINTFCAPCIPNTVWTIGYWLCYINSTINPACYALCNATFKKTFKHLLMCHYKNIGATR
# Caspase-1 = molecular target: T2, Caspase-1 (Homo sapiens, UniProt P29466); parameters: species or system Escherichia coli;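 also: Caspase-1 enzyme inhibition assay with a peptide substrate; in other assays of this panel Not Active means under 50% inhibition at 10 µM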
# T2 sequence (P29466 whole entry): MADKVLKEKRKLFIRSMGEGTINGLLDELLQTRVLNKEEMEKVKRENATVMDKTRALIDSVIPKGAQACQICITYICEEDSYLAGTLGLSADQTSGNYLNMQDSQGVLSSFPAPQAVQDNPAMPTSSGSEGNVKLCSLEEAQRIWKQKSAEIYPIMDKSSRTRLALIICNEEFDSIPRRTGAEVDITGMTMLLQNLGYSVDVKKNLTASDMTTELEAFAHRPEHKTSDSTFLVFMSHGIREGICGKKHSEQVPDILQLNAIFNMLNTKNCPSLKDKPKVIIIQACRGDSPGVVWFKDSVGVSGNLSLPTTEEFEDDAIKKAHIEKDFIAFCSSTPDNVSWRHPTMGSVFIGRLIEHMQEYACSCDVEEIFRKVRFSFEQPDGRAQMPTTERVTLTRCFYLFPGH
# Cathepsin G = molecular target: T3, Cathepsin G (Homo sapiens, UniProt P08311); assay: biochemical; type: tissue-based, Neutrophil; conditions: neutrophil;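 also: inhibition of Cathepsin G enzyme activity, tested on an AMC-conjugated peptide substrate; in other assays of this panel Not Active means under 50% inhibition at 10 µM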
# T3 sequence (P08311 whole entry): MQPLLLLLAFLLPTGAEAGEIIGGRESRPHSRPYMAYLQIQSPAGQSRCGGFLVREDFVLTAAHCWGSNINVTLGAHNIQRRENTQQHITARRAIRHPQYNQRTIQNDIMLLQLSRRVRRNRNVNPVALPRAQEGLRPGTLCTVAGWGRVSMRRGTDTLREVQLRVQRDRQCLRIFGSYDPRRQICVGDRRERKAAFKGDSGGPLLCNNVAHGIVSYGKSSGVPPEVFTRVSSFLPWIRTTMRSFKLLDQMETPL
# Neutrophil elastase = molecular target: T4, Neutrophil elastase (Homo sapiens, UniProt P08246); type: tissue-based;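 also: inhibition of neutrophil elastase enzyme activity, measured with a p-nitroanilide-linked peptide substrate; in other assays of this panel Not Active means under 50% inhibition at 10 µM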
# T4 sequence (P08246 whole entry): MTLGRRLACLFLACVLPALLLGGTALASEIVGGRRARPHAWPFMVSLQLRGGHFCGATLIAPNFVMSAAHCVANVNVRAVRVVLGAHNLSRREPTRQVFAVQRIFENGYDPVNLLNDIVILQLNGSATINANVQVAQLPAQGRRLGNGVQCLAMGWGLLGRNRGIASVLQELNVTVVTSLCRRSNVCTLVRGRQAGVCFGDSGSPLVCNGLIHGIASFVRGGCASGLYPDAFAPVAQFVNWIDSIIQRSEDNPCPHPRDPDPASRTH
# [2] = molecular target: T5, Alpha-1A adrenergic receptor (Rattus norvegicus, UniProt P43140); assay: DRUGMATRIX: Alpha-1A adrenergic receptor radioligand binding (ligand: prazosin); type: cell membranes, Wistar, Submaxillary gland, Membrane; conditions: Not Active = under 50% inhibition at 10 µM
# T5 sequence (P43140 whole entry): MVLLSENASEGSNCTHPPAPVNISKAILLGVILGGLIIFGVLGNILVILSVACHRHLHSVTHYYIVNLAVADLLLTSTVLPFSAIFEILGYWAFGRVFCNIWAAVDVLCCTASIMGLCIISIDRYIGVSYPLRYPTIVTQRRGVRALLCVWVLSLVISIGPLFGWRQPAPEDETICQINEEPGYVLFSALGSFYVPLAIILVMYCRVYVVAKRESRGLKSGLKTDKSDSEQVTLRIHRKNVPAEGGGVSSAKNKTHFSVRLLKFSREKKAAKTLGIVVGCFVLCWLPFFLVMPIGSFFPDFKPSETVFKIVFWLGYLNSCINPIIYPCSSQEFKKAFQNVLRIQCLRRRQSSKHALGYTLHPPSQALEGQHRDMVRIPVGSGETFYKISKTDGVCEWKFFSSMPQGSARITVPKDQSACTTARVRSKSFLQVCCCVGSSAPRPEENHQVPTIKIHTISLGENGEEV
# [3] = molecular target: Vascular endothelial growth factor receptor 1 (Homo sapiens, UniProt P17948); type: cell-based; conditions: huvec; also: in other assays of this panel Not Active means under 50% inhibition at 10 µM
# Vascular endothelial growth factor receptor 1, sequence (P17948 whole entry): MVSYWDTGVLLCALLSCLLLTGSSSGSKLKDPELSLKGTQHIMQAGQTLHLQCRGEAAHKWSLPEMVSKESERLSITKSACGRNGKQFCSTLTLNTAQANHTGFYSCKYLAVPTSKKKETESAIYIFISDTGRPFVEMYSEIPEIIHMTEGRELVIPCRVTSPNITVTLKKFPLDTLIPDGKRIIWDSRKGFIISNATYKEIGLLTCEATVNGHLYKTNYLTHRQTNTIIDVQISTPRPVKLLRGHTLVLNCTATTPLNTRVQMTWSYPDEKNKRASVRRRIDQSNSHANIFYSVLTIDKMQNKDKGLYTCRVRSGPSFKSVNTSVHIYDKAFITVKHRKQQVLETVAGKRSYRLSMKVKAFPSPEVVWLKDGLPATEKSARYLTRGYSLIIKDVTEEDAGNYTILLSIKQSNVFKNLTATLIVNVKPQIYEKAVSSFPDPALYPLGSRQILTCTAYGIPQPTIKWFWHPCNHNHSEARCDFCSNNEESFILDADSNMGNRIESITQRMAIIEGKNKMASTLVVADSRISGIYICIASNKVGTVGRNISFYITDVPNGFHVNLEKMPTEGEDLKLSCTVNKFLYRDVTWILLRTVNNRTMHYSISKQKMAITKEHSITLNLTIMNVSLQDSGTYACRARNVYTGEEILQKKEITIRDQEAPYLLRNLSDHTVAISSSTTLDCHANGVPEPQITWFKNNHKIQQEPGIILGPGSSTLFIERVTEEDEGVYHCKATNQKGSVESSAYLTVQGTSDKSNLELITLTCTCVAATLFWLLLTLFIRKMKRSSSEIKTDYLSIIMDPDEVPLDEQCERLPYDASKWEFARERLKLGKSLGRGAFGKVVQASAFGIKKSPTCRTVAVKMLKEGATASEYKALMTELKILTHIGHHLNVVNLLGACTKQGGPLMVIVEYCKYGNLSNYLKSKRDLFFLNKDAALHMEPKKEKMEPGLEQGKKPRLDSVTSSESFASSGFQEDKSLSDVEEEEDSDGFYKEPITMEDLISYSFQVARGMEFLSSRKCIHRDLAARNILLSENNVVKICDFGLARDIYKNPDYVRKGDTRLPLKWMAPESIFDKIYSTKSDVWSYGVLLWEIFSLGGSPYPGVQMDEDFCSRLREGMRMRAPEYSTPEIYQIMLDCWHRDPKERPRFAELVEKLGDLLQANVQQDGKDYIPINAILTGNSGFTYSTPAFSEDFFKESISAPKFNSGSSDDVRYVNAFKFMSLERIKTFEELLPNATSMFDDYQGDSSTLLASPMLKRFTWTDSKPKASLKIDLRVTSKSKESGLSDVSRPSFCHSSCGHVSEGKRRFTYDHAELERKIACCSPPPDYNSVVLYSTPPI
# Carbonic anhydrase 2 = Carbonic anhydrase 2 (Homo sapiens, UniProt P00918); assay: DRUGMATRIX: Carbonic Anhydrase II enzyme inhibition (substrate: 4-Nitrophenyl acetate (4-NPA)); type: tissue-based, Erythrocyte; conditions: erythrocyte; Not Active = under 50% inhibition at 10 µM
Compound,IC50 ([1]; cho-k1),IC50 (Caspase-1),IC50 (Cathepsin G),IC50 (Neutrophil elastase),IC50 [2],IC50 [3],IC50 (Carbonic anhydrase 2),Ki ([1]; cho-k1),Ki (Caspase-1),Ki (Cathepsin G),Ki (Neutrophil elastase),Ki [2],Ki [3],Ki (Carbonic anhydrase 2),IC50 ([1]; read-out: IC50),Ki ([1]; read-out: Ki),IC50 ([2]; read-out: IC50),Ki ([2]; read-out: Ki)
CO[C@@H]1[C@@H](OC)[C@H](C)[C@@](O)(CC(=O)O)O[C@H]1[C@H](C)[C@H]1O[C@@]2(CC[C@@](C)([C@H]3CC[C@@](C)([C@@H]4O[C@@H]([C@H]5O[C@](C)(O)[C@H](C)C[C@@H]5C)C[C@@H]4O[C@@H]4C[C@H](OC)[C@@H](OC)[C@H](C)O4)O3)O2)C[C@H](O)[C@H]1C.N [MADURAMICIN],Not Active,Not Active,Not Active,Not Active,Not Active,Not Active,Not Active,–,–,–,–,–,–,–,–,–,–,–
LEAD(IV) ACETATE,Not Active,Not Active,Not Active,Not Active,Not Active,Not Active,Not Active,Not Active,Not Active,Not Active,Not Active,Not Active,Not Active,Not Active,–,–,–,–
O=C(c1ccccc1)c1ccc2n1CCC2C(=O)O (stereo not drawn) [KETOROLAC],Not Active,Not Active,Not Active,Not Active,Not Active,Not Active,Not Active,–,–,–,–,–,–,–,–,–,–,–
CC[C@H](C)[C@@H](CO[C@@H](Cc1ccccc1)C(=O)N[C@@H](CCS(C)(=O)=O)C(=O)OC(C)C)NC[C@@H](N)CS,–,Not Active,Not Active,Not Active,Not Active,Not Active,Not Active,–,–,–,–,–,–,–,3.57 µM,1.27 µM,–,–
CN1C(=O)OC(C)(C)C1=O [TRIMETHADIONE],Not Active,Not Active,Not Active,Not Active,Not Active,Not Active,Not Active,–,–,–,–,–,–,–,–,–,–,–
CCC(C)(C)C(=O)O[C@H]1C[C@@H](C)C=C2C=C[C@H](C)[C@H](CC[C@@H]3C[C@@H](O)CC(=O)O3)[C@H]21 [SIMVASTATIN],Not Active,Not Active,Not Active,Not Active,Not Active,Not Active,Not Active,–,–,–,–,–,–,–,–,–,–,–
Cc1ccc(S(=O)(=O)NC(=O)NN2CCCCCC2)cc1 [TOLAZAMIDE],Not Active,Not Active,Not Active,Not Active,Not Active,Not Active,Not Active,–,–,–,–,–,–,–,–,–,–,–
CC(Cl)(Cl)Cl [TRICHLOROETHANE],Not Active,Not Active,Not Active,Not Active,Not Active,Not Active,Not Active,–,–,–,–,–,–,–,–,–,–,–
CC(C)(C)NC[C@H](O)COc1cccc2c1CCCC2=O [LEVOBUNOLOL],Not Active,Not Active,Not Active,Not Active,Not Active,Not Active,Not Active,–,–,–,–,–,–,–,–,–,–,–
Cc1cccc(C)c1NC(=O)C(C)N (stereo not drawn) [TOCAINIDE],Not Active,Not Active,Not Active,Not Active,Not Active,Not Active,Not Active,–,–,–,–,–,–,–,–,–,–,–
CCOC(=O)C1=C(C)NC(C)=C(C(=O)OCC)C1c1ccccc1/C=C/C(=O)OC(C)(C)C [LACIDIPINE],Not Active,Not Active,Not Active,Not Active,Not Active,Not Active,Not Active,–,–,–,–,–,–,–,–,–,–,–
C=CCc1ccc2c(c1)OCO2 [SAFROLE],Not Active,Not Active,Not Active,Not Active,Not Active,Not Active,Not Active,–,–,–,–,–,–,–,–,–,–,–
O=C(OC[C@H]1O[C@@H](OC(=O)c2cc(O)c(O)c(OC(=O)c3cc(O)c(O)c(O)c3)c2)[C@H](OC(=O)c2cc(O)c(O)c(OC(=O)c3cc(O)c(O)c(O)c3)c2)[C@@H](OC(=O)c2cc(O)c(O)c(OC(=O)c3cc(O)c(O)c(O)c3)c2)[C@@H]1OC(=O)c1cc(O)c(O)c(OC(=O)c2cc(O)c(O)c(O)c2)c1)c1cc(O)c(O)c(OC(=O)c2cc(O)c(O)c(O)c2)c1 [TANNIC ACID],Not Active,Not Active,Not Active,Not Active,Not Active,Not Active,Not Active,–,–,–,–,–,–,–,–,–,–,–
CO[C@@]12[C@H](COC(N)=O)C3=C(C(=O)C(C)=C(N)C3=O)N1C[C@@H]1N[C@@H]12 [MITOMYCIN],Not Active,Not Active,Not Active,Not Active,Not Active,Not Active,Not Active,–,–,–,–,–,–,–,–,–,–,–
CN1C[C@H](CNC(=O)OCc2ccccc2)C[C@@H]2c3cccc4c3c(cn4C)C[C@H]21 [METERGOLINE],Not Active,Not Active,Not Active,Not Active,–,Not Active,Not Active,–,–,–,–,–,–,–,–,–,0.095 µM,0.038 µM
Cc1[nH]c(=O)c(C#N)cc1-c1ccncc1 [MILRINONE],Not Active,Not Active,Not Active,Not Active,Not Active,Not Active,Not Active,–,–,–,–,–,–,–,–,–,–,–
O=C1CC[C@@]2(O)[C@H]3Cc4ccc(O)c5c4[C@@]2(CCN3CC2CC2)[C@H]1O5 [NALTREXONE],Not Active,Not Active,Not Active,Not Active,Not Active,Not Active,Not Active,–,–,–,–,–,–,–,–,–,–,–
COC(=O)Nc1nc2ccc(C(=O)c3ccccc3)cc2[nH]1 [MEBENDAZOLE],Not Active,Not Active,Not Active,Not Active,Not Active,Not Active,Not Active,–,–,–,–,–,–,–,–,–,–,–
CC(=O)O[C@]1(C(C)=O)CC[C@H]2[C@@H]3C[C@H](C)C4=CC(=O)CC[C@]4(C)[C@H]3CC[C@@]21C [MEDROXYPROGESTERONE ACETATE],Not Active,Not Active,Not Active,Not Active,Not Active,Not Active,Not Active,–,–,–,–,–,–,–,–,–,–,–
Cc1cn([C@H]2C=C[C@@H](CO)O2)c(=O)[nH]c1=O [STAVUDINE],Not Active,Not Active,Not Active,Not Active,Not Active,Not Active,Not Active,–,–,–,–,–,–,–,–,–,–,–
Cc1cnc(NC(=O)C2=C(O)c3ccccc3S(=O)(=O)N2C)s1 [MELOXICAM],Not Active,Not Active,Not Active,Not Active,Not Active,Not Active,Not Active,–,–,–,–,–,–,–,–,–,–,–
CC(O)C(=O)O (stereo not drawn) [LACTIC ACID],Not Active,Not Active,Not Active,Not Active,Not Active,Not Active,Not Active,–,–,–,–,–,–,–,–,–,–,–
